# Measured values: patent publication US20250339441A1, “METHODS OF TREATING CANCER” (FOGHORN THERAPEUTICS INC., priority 2022, published 2025)
# How the values were obtained:
# [1] = Phase 1 dose escalation clinical trial of Compound A, oral, in subjects with metastatic uveal melanoma; format: in vivo
# Description: A Phase 1 dose escalation clinical trial of Compound A is conducted. The trial is primarily intended to determine the maximum tolerated dose (MTD) and/or recommended phase 2 dose of the compound when administered orally to subjects with metastatic uveal melanoma (UM).
# In this ongoing study, Compound A has been administered at dose levels of 2.5 mg once a day (QD), 5 mg QD, 7.5 mg QD, and 10 mg QD to 17 subjects with metastatic UM. […] In evaluable subjects, myeloid differentiation and reduction in bone marrow and/or peripheral blasts have been observed.
# [2] = Population PK model (nonlinear mixed-effects, two-compartment) of oral Compound A patient concentration vs. time data; format: in vivo, human
# Description: A population PK model based on orally administered Compound A dosing data in a total of 10 patients with metastatic uveal melanoma (UM) and advanced hematologic malignancies (e.g., acute myeloid leukemia (AML)) was performed.
# Nonlinear mixed-effects models were fitted to concentration vs. time data of FHD-286. Various compartmental models with linear elimination (1-, 2- and 3-compartment), absorption models, structures of omega on clearances, volumes and absorption parameters (diagonal and block) were developed to assess the PK of Compound A.
# Overall, a two-compartment model with linear elimination, a zero-order oral absorption, and a lag time of absorption adequately characterized the concentration-time profiles of Compound A.
# Exploratory analysis of covariate effects was performed with appropriate plots presenting relationships between the ETAs (e.g., values reflecting the difference between and individual's parameter value and that of the population) of PK parameters to identify any remaining covariate trends. […] Therefore a “Multiple Dose Effect” on CL was included in the model to account for this change over time.
# No other covariates were included as part of the model.
# [3] = final population PK model, oral, 10 patients
structure (smiles),measurement,setting,value
"COC[C@H](NC(=O)c1ccn(S(C)(=O)=O)c1)C(=O)Nc1nc(-c2cccc(N3C[C@@H](C)O[C@@H](C)C3)n2)cs1 [Compound A, N-(1-((4-(6-(2,6-dimethylmorpholino)pyridin-2-yl)thiazol-2-yl)amino)-3-methoxy-1-oxopropan-2-yl)-1-(methylsulfonyl)-1H-pyrrole-3-carboxamide]",myeloid differentiation,[1]; in evaluable subjects,observed
same,reduction in bone marrow and/or peripheral blasts,[1]; in evaluable subjects,observed
same,dose limiting toxicity,"[1]; one subject at the 7.5 mg QD dose level, improved with a dose hold",Grade 3 keratitis
same,half-life (preliminary PK analysis),"[1]; oral 2.5, 5, 7.5, 10 mg QD, 17 subjects with metastatic UM, preliminary",long
same,plasma concentrations of the compound versus dose,"[1]; oral 2.5-10 mg QD, subjects with metastatic UM, preliminary",increase with increasing dose
same,change in clearance (CL) over time,[2]; after multiple doses,reduction
same,"CL, Estimate",[2]; [3],4.07 L/h
same,"CLp, Estimate",[2]; [3],30.6 L/h
same,"Tlag, Estimate (lag time of absorption)",[2]; [3],0.452 h
same,"Vc, Estimate",[2]; [3],54.6 L
same,"Vd, Estimate",[2]; [3],165 L
same,"Dur, Estimate (zero-order oral absorption)","[2]; final population PK model, oral, 10 patients with metastatic UM and advanced hematologic malignancies",1.77 h
